Type in all cases: in vivo, rat
One assay has as its system retinal capillaries. Kind of assay: Microscopic observation of retinal vascular digest preparation, STZ diabetic rats (Experiment 3). The note with it: 9 months, PAS staining, result in words. The method, then:
(§1) 48 SPF-grade SD rats, male, 6 weeks old, (220±20) g in weight, were purchased from Huafukang Biotechnology Co., Ltd. After one-week's adaptive feeding, the rats were randomized into the modeling group (36 rats) and normal group (12 rats). The rats were fasted for 12 hours before modeling and given 1% STZ solution according to the body weight of 60 mg/kg via one intraperitoneal injection to induce experiment diabetic rat models. Rats in the normal group were injected with normal saline of the same volume. Blood glucose was monitored 72 hours later, blood was collected via caudal vein, and the modeling was deemed as successful when the blood glucose was ≥16.7 mmol/L for 3 consecutive days; after successful modeling, rats were randomized into the model group (12 rats), TCM composition experiment group (abbreviated as the experiment group, containing 12 rats) and Doxium group (abbreviated as the control group, containing 12 rats). Rats in the experiment group and control group were dosed on the next day after successful modeling. The administered dose of the experiment group was 10 ml/(kg·d) and that of the control group was 250 mg/(kg·d), with the Doxium powders dissolved in 2 mL distilled water. […] In the experiment period, all the rats were given food and drinking water at regular times each day; the changes in the body weight and blood glucose of rats were monitored monthly. […]

For assay [1], the system named is retina. The assay is described as follows: HE staining of retinal paraffin sections, STZ diabetic rats (Experiment 3). The following applies: 9 months, result in words. How it is done:
as §1

A further assay concerns VEGF. Kind of assay: Immunohistochemistry of retinal paraffin sections: whole-layer retinal VEGF expression (Experiment 3). The note with it: STZ diabetic rats, 9 months, x ± s. How it is done: as §1
Assay [2] deals with retina. Kind of assay: Retinal electron microscopy, STZ diabetic rats (Experiment 3). The following applies: 9 months, result in words. The method, then:
as §1

Assay [3] relates to iris vessels of diabetic rats. The assay is described as follows: Iris blood flow velocity in STZ diabetic rats. The following applies: x ± s. The text has this:
(§2) The modeling was the same as that of Experiment 2. After successful modeling, diabetic rats were randomized into the model group (20 rats), experiment group (30 rats, given the TCM composition prepared according to Experiment 1), control group (Doxium group, 20 rats) and normal group (12 rats). The experiment lasted 300 days. 1.2 Observation Methods and Outcome Measures: The iris blood flow velocity, diameter of iris vessels, density of iris microvessels, endothelial structure of iris microvessels, permeability of iris microvessels and iris unit area blood perfusion volume were observed by the iris vascular perfusion scan and iris fluorescein angiography.

In assay [4] the test system is iris vessels of diabetic rats. Kind of assay: Diameter of iris vessels in STZ diabetic rats. The following applies: 300 days, result in words.
Source text: as §2

Assay [5] deals with iris vessels of diabetic rats. The assay is described as follows: Iris unit area blood perfusion volume (laser Doppler scanning) in STZ diabetic rats. The note with it: x ± s.
Source text: as §2

Turning to `O=S(=O)(O)c1cc(O)ccc1O` [Doxium], the “Microscopic observation of retinal vascular digest preparation” value with retinal capillaries is on record as “retinal microvascular changes were significantly prevented or delayed”. In addition, the “Light microscopic observation of HE-stained retinal paraffin sections” value in the assay on retina [1] is “the retinal net structure was loose, internal and external granular layers were arranged in a disordered manner, capillaries were dilated, and interstitial edema can be noted”. The “Whole-layer Retinal VEGF Expression (Gray-scale values), Mean Optical Density Value” in the assay on VEGF is given as 0.43 ± 0.09. Further, the “Retinal ultrastructure observation (electron microscopy)” value in the assay on retina [2] is “the vascular walls of retinal capillaries were still regular and smooth, basement membranes were thickened”. Also, the “Blood Flow Velocity Index, Post-treatment” value in assay [3] (300 days) came out at 3.25 ± 0.81 min. The “Blood Flow Velocity Index, Pre-treatment” value in assay [3] (baseline) is on record as 1.07 ± 0.07 min. In assay [4], the “Diameter of iris vessels compared to the model group” value is “no statistically significant difference between the Doxium group and model group”. In assay [5] (300 days), the “Iris Unit Area Blood Perfusion Volume, Post-treatment” value was determined as 133.71 ± 6.89. Besides, the “Iris Unit Area Blood Perfusion Volume, Pre-treatment” value in assay [5] (baseline) came out at 607.45 ± 194.19.

For the origin of these results see US10420810B2, “Traditional Chinese medicine composition for the treatment of diabetic retinopathy” (priority 2015, dated 2019).
